Results from patent publication US8916183B2, “Pesticidal compositions and processes related thereto” (priority 2012, dated 2014).
Like-named read-outs stand apart in the source and are kept apart here.

Key:
Type in all cases: in vivo
[1] = test system: Green Peach Aphid (GPA) (Myzus persicae); assay: Bioassay on green peach aphid (GPA), foliar spray on cabbage seedlings; conditions: read-out: % Mortality GPA 200 ppm
Protocol: Certain molecules disclosed in this document were tested against GPA using procedures described in the following example. In the reporting of the results, the “GPA Rating Table” was used (See Table Section).
Cabbage seedlings grown in 3-inch pots, with 2-3 small (3-5 cm) true leaves, were used as test substrate. The seedlings were infested with 20-50 GPA (wingless adult and nymph stages) one day prior to chemical application. Four pots with individual seedlings were used for each treatment. Test compounds (2 mg) were dissolved in 2 mL of acetone/methanol (1:1) solvent, forming stock solutions of 1000 ppm test compound. […] A hand-held aspirator-type sprayer was used for spraying a solution to both sides of […] leaves until runoff. Reference plants (solvent check) were sprayed with the diluent only containing 20% by volume of acetone/methanol (1:1) solvent. Treated plants were held in a holding room for three days at approximately 25° C. and ambient relative humidity (RH) prior to grading. Evaluation was conducted by counting the number of live aphids per plant under a microscope. […] Corrected % Control=100*(X−Y)/X • where • X=No. of live aphids on solvent check plants and • Y=No. of live aphids on treated plants
The results are indicated in the table entitled “Table 5: Biological Results” (See Table Section).

[2] = test system: Beet Armyworm (BAW) (Spodoptera exigua); assay: Bioassay on beet armyworm (BAW), 128-well diet tray assay; conditions: Spodoptera exigua, read-out: % Mortality BAW 50 μg/cm^2
[3] = test system: Corn Earworm (CEW) (Helicoverpa zea); assay: Bioassay on corn earworm (CEW), 128-well diet tray assay; conditions: Helicoverpa zea, read-out: % Mortality CEW 50 μg/cm^2
In short: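 Activity was scored as percent larval mortality per well, averaged across eight wells and reported on a rating scale. Diet trays (128-well) were kept at 25° C with 14:10 light-dark for five to seven days.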

Structure (SMILES) | mortality at 200 ppm ([1]; green peach aphid, 200 ppm) | mortality at 50 µg/cm2 ([2]; beet armyworm, 50 μg/cm^2) | mortality at 50 µg/cm2 ([3]; corn earworm, 50 μg/cm^2) | mortality at 200 ppm [1] | mortality at 50 µg/cm2 [2] | mortality at 50 µg/cm2 [3]
Cc1cccc(C)c1/N=C(/N/N=C/c1ccc(-c2ncn(-c3ccc(OC(F)(F)F)cc3)n2)cc1)SCC(=O)NC[C@@H]1CCCNC1 [Compound 62C, (1Z,2E)-2-oxo-2-(((R)-piperidin-3-ylmethyl)amino)ethyl N-(2,6-dimethylphenyl)-2-(4-(1-(4-(trifluoromethoxy)phenyl)-1H-1,2,4-triazol-3-yl)benzylidene)hydrazinecarbimidothioate trifluoroacetic acid] | 0 to 80% | 50 to 100% | 50 to 100% |  |  | 
Cc1cccc(C)c1/N=C(/N/N=C/c1ccc(-c2ncn(-c3ccc(OC(F)(F)F)cc3)n2)cc1)SCC(=O)N1CCNCC1 [Compound 67C] | 0% | 50 to 100% | 50 to 100% |  |  | 
CCc1cccc(C)c1N1CCCS/C1=N\N=C\c1ccc(-c2ncn(-c3ccc(OC(F)(F)F)cc3)n2)cc1 [Compound 180C] | 0 to 80% | 50 to 100% | 50 to 100% |  |  | 
Cc1ccc(N2/C(=N/N=C/c3ccc(-c4ncn(-c5ccc(OC(F)(F)F)cc5)n4)cc3)SCC2(C)O)c(C(C)C)c1 (stereo not drawn) [Compound 251C] | 0 to 80% | 50 to 100% | 50 to 100% |  |  | 
COc1ccccc1N1CCCS/C1=N\N=C\c1ccc(-c2ncn(-c3ccc(OC(F)(F)F)cc3)n2)cc1 [Compound 191C] | 0% | 50 to 100% | 50 to 100% |  |  | 
COc1cc(C)c(-n2c(C(=O)O)cs/c2=N\N=Cc2ccc(-c3ncn(-c4ccc(OC(F)(F)F)cc4)n3)cc2)c(C)c1 [Compound 80C] | 0% | 50 to 100% | 50 to 100% |  |  | 
Cc1cccc(C)c1/N=C(/N/N=C/c1ccc(-c2ncn(-c3ccc(OC(F)(F)F)cc3)n2)cc1)SCC(=O)N1CCN(C(=O)OC(C)(C)C)CC1 [Compound 57C] | 0 to 80% | 50 to 100% | 50 to 100% |  |  | 
CC(C)c1ccccc1N1/C(=N/N=C/c2ccc(-c3ncn(-c4ccc(OC(F)(F)F)cc4)n3)cc2)SCC1(O)c1ccccc1C(F)(F)F (stereo not drawn) [Compound 263C] | 0 to 80% | 50 to 100% | 50 to 100% |  |  | 
FC(F)(F)Oc1ccc(-n2cnc(-c3ccc(/C=N/N=C4\SCCCN4c4c(Cl)cccc4Cl)cc3)n2)cc1 [Compound 187C] | 0% | 50 to 100% | 50 to 100% |  |  | 
CC(C)c1cc(F)c(F)cc1N1/C(=N/N=C/c2ccc(-c3ncn(-c4ccc(OC(F)(F)F)cc4)n3)cc2)SCC1(C)O (stereo not drawn) [Compound 259C] | 0% | 50 to 100% | 50 to 100% |  |  | 
CCOc1ccccc1N1CCCS/C1=N\N=C\c1ccc(-c2ncn(-c3ccc(OC(F)(F)F)cc3)n2)cc1 [Compound 208C] | 0% | 50 to 100% | 50 to 100% |  |  | 
CCOCC(=O)OCS/C(=N\c1c(C)cc(OC)cc1C)N/N=C/c1ccc(-c2ncn(-c3ccc(OC(F)(F)F)cc3)n2)cc1 [Compound 29C] | 0 to 80% | 50 to 100% | 50 to 100% |  |  | 
Cc1cccc(C)c1/N=C(/N/N=C/c1ccc(-c2ncn(-c3ccc(OC(F)(F)F)cc3)n2)cc1)SCc1ccc(S(N)(=O)=O)cc1 [Compound 13C] | 0 to 80% | 50 to 100% | 50 to 100% |  |  | 
COc1ccccc1N1CCS/C1=N\N=C\c1ccc(-c2ncn(-c3ccc(OC(F)(F)F)cc3)n2)cc1 [Compound 140C] | 0 to 80% | 50 to 100% | 50 to 100% |  |  | 
CCOc1ccccc1N1CCS/C1=N\N=C\c1ccc(-c2ncn(-c3ccc(OC(F)(F)F)cc3)n2)cc1 [Compound 146C] | 0 to 80% | 50 to 100% | 50 to 100% |  |  | 
CC1S/C(=N\N=C\c2ccc(-c3ncn(-c4ccc(OC(F)(F)F)cc4)n3)cc2)N(c2ccccc2C(C)C)C1=O (stereo not drawn) [Compound 88C] | 0 to 80% | 50 to 100% | 50 to 100% |  |  | 
Cc1cccc(C)c1/N=C(/N/N=C/c1ccc(-c2ncn(-c3ccc(OC(F)(F)F)cc3)n2)cc1)SCc1cc2c(C(F)(F)F)nn(C)c2s1 [Compound 19C] | 0 to 80% | 50 to 100% | 50 to 100% |  |  | 
Cc1cccc(C)c1/N=C(/N/N=C/c1ccc(-c2ncn(-c3ccc(OC(F)(F)F)cc3)n2)cc1)SCC(=O)NCCCN [Compound 66C] | 0 to 80% | 50 to 100% | 50 to 100% |  |  | 

Structure (SMILES) | mortality at 200 ppm ([1]; green peach aphid, 200 ppm) | mortality at 50 µg/cm2 ([2]; beet armyworm, 50 μg/cm^2) | mortality at 50 µg/cm2 ([3]; corn earworm, 50 μg/cm^2) | mortality at 200 ppm [1] | mortality at 50 µg/cm2 [2] | mortality at 50 µg/cm2 [3]
COc1ccc(N2CCCS/C2=N\N=C\c2ccc(-c3ncn(-c4ccc(OC(F)(F)F)cc4)n3)cc2)c(C)c1 [Compound 192C] | 0 to 80% | 50 to 100% | 50 to 100% |  |  | 
Cc1cc(C)c(N2C(=O)CS/C2=N\N=C\c2ccc(-c3ncn(-c4ccc(OC(F)(F)F)cc4)n3)cc2)c(C)c1 [Compound 72C] | 0 to 80% | 50 to 100% | 50 to 100% |  |  | 
COc1cc(C)c(/N=C(/N/N=C/c2ccc(-c3ncn(-c4ccc(OC(F)(F)F)cc4)n3)cc2)SCOC(=O)CNC(=O)OCc2ccccc2)c(C)c1 [Compound 28C] |  |  |  | 0 to 80% | 50 to 100% | 50 to 100%
Cc1cccc(C)c1/N=C(/N/N=C/c1ccc(-c2ncn(-c3ccc(OC(F)(F)F)cc3)n2)cc1)SCc1ocnc1-c1ccccc1 [Compound 15C] | 80 to 100% | 50 to 100% | 50 to 100% |  |  | 
COc1cc(C)c(N2CCCS/C2=N\N=C\c2ccc(-c3ncn(-c4ccc(OC(F)(F)F)cc4)n3)cc2)c(C)c1 [Compound 181C] | 0 to 80% | 50 to 100% | 50 to 100% |  |  | 
Cc1ccc(C(C)C)c(N2/C(=N/N=C/c3ccc(-c4ncn(-c5ccc(OC(F)(F)F)cc5)n4)cc3)SCC2(C)O)c1 (stereo not drawn) [Compound 253C] | 0% | 50 to 100% | 50 to 100% |  |  | 
COc1cc(Cl)c(/N=C(/N/N=C/c2ccc(-c3ncn(-c4ccc(OC(F)(F)F)cc4)n3)cc2)SCOC(=O)OC(C)C)c(Cl)c1 [Compound 33C] | 0 to 80% | 50 to 100% | 50 to 100% |  |  | 
Cc1cccc(C)c1/N=C(/N/N=C/c1ccc(-c2ncn(-c3ccc(OC(F)(F)F)cc3)n2)cc1)SCOC(=O)C(C)C [Compound 25C] | 0% | 50 to 100% | 50 to 100% |  |  | 
CC(C)c1ccccc1N1C(=NN=Cc2ccc(-c3ncn(-c4ccc(OC(F)(F)F)cc4)n3)cc2)SCC1C (stereo in doubt) [Compound 155C, (Z)-3-(2-isopropylphenyl)-4-methyl-2-((E)-(4-(1-(4-(trifluoromethoxy)phenyl)-1H-1,2,4-triazol-3-yl)benzylidene)hydrazono)thiazolidine] | 0% | 50 to 100% | 50 to 100% |  |  | 
COc1cc(C)c(/N=C(\N/N=C/c2ccc(-c3ncn(-c4ccc(C(F)(F)F)cc4)n3)cc2)SCOC(=O)C(C)C)c(C)c1 [Compound 46C] | 0% | 50 to 100% | 50 to 100% |  |  | 
CCc1cccc(C)c1N1/C(=N/N=C/c2ccc(-c3ncn(-c4ccc(OC(F)(F)F)cc4)n3)cc2)SCCC1C (stereo not drawn) [Compound 213C] | 0 to 80% | 50 to 100% | 50 to 100% |  |  | 
CCN(CC)c1ccc(-c2cs/c(=N\N=Cc3ccc(-c4ncn(-c5ccc(OC(F)(F)F)cc5)n4)cc3)n2-c2c(C)cccc2C)cc1 [Compound 74C] | 0% | 50 to 100% | 50 to 100% |  |  | 
COCCOC(C)C(=O)OCS/C(=N\c1c(C)cc(OC)cc1C)N/N=C/c1ccc(-c2ncn(-c3ccc(OC(F)(F)F)cc3)n2)cc1 (stereo not drawn) [Compound 42C] | 0% | 50 to 100% | 50 to 100% |  |  | 
Cc1cccc(C)c1/N=C(/N/N=C/c1ccc(-c2ncn(-c3ccc(OC(F)(F)C(F)(F)F)cc3)n2)cc1)SCC(=O)O [Compound 49C] | 0 to 80% | 50 to 100% | 50 to 100% |  |  | 
CC(C)c1ccccc1N1CCCS/C1=N\N=C\c1ccc(-c2ncn(-c3ccc(C(F)(F)F)cc3)n2)cc1 [Compound 179C] | 0% | 50 to 100% | 50 to 100% |  |  | 
CC(/N=C(/N/N=C/c1ccc(-c2ncn(-c3ccc(OC(F)(F)F)cc3)n2)cc1)SCC(=O)O)c1ccccc1 (stereo not drawn) [Compound 54C] | 0% | 50 to 100% | 50 to 100% |  |  | 
COc1cc(C)c(/N=C(/N/N=C/c2ccc(-c3ncn(-c4ccc(OC(F)(F)F)cc4)n3)cc2)SCOC(=O)C(C)C)c(C)c1 [Compound 27C] | 0 to 80% | 50 to 100% | 50 to 100% |  |  | 
